Laboratory results published in article PMC6694155, “PTPσ inhibitors promote hematopoietic stem cell regeneration” (Nature Communications, 2019).
Where “and” joins values, the source holds several entries; their conditions need not be identical. Identical values can stand only once.

How the values were obtained:
C57BL/6 mice = test: Cytokine analysis in vivo (BM supernatant at day +5); set-up: species or system mouse; PTN: unit not given beside the values; IFN-g / IL-1a / IL-1b / IL-2 / IL-4 / IL-3 / IL-5 / IL-6 / IL-7 / IL-9 / IL-10 / IL-12(p40) / IL-12(p70) / LIF / IL-13 / LIX / IL-15 / IL-17 / IP-10 / CXCL12 / SCF / TPO / EGF / DKK / G-CSF / Eotaxin / GM-CSF / KC / MCP-1 / MIP-1a / MIP-1b / M-CSF / MIP-2 / MIG / RANTES / VEGF / TNF-a: unit not given here
Procedure: For in vitro cytokine measurements, 3.5 × 10^4 BM KSL cells were irradiated with 300 cGy and cultured in TSF media with and without 1 μg/mL DJ001. Non-irradiated KSL cells were cultured in TSF media with and without 1 μg/mL DJ001. At 12 h of culture, culture supernatants were collected for analysis. For in vivo cytokine measurements, adult C57BL/6 mice were irradiated with 750 cGy TBI and then treated with 5 mg/kg of DJ001 or vehicle, subcutaneously, from day + 1 to day + 5. Non-irradiated mice received the identical regimen of 5 mg/kg DJ001 or vehicle for 5 days. Mice were killed and BM cells were collected into IMDM. Cells were pelleted and the BM supernatant was collected and sent to the UCLA Immune Assessment Core for cytokine analysis. All samples were tested on a mouse 32-plex Cytokine/Chemokine panel platform from EMD Milipore using Luminex’s xMAP® immunoassay technology (Luminex, Inc.). In addition, the following cytokine levels were assessed by solid-phase ELISA assay according to the manufacturer’s description: CXCL12 (R&D Systems), SCF (R&D Systems), Thrombopoietin (TPO) (R&D Systems), PTN (Biomatik), DKK1 (R&D Systems), and EGF (R&D Systems).

[1] = molecular target: T1, TCPTP (T-Cell Protein-Tyrosine Phosphatase) (Homo sapiens, UniProt P17706); test: PhosphataseProfiler screen: TCPTP; format: biochemical; conditions: replicates
T1 construct: purchased Eurofins Pharma Discovery Services UK
Procedure: (§1) Compound DJ001 was evaluated in a PhosphataseProfiler™ screen at 10 μM and 1 μM (2.7 μg/mL and 0.27 μg/mL) concentrations at Eurofins Pharma Discovery Services UK (Study number UK022-0004033) against a panel of 21 Phosphatases. In each experiment, the respective reference antagonist/agonist was tested directly with DJ001 and the data were compared with historical values determined at Eurofins. DJ001 compound inhibition was calculated as percentage inhibition of the enzymatic activity compared with control.

BCL-XL in BM KSL cells = test: BCL-XL protein intracellular flow cytometry of BM KSL cells; format: cell-based, mouse
Procedure: Intracellular flow cytometric analysis was performed on irradiated (300 cGy) or non-irradiated, sorted KSL cells after treatment with 1 μg/mL DJ001 or control (equal volumes of DMSO) for 24 h. At 24 h after irradiation, cells were fixed with 4% PFA for 10 min, followed by permeabilization using 0.25% saponin in PBS. Cells were washed again and stained with antibody at the recommended concentrations for 30 min at RT. Intracellular antibodies and phospho-flow antibodies used were as follows: FITC-conjugated anti-BCL-XL (Abcam, #26148, 1:100), active RAC1-GTP antibody (NewEast Biosciences, #26903, 1:100) and anti-PAK1 (phospho S144) + PAK2 (phospho S141) + PAK3 (phospho S154) antibody (Abcam, #40795, 1:100), and FITC-conjugated goat anti-rabbit IgG H&L (Abcam, #97050, 1:200).

[2] = molecular target: T2, SHP-1 (Protein-Tyrosine Phosphatase 1C) (Homo sapiens, UniProt P29350); test: PhosphataseProfiler screen: SHP-1; format: biochemical; conditions: replicates
T2 construct: purchased Eurofins Pharma Discovery Services UK
Procedure: as §1

human BM CD34+ cells = test: Recovery of CD34+CD38− cells from 300 cGy-irradiated human BM CD34+ cells; format: cell-based; conditions: 36 h, 5 µg/mL DJ001
[3] = 750cGy, Supplementary Figure 6c
[4] = 750cGy, Supplementary Figure 6d
[5] = NI (non-irradiated), Supplementary Figure 6c
[6] = NI (non-irradiated), Supplementary Figure 6d

T1 sequence (P17706 whole entry, species assumed): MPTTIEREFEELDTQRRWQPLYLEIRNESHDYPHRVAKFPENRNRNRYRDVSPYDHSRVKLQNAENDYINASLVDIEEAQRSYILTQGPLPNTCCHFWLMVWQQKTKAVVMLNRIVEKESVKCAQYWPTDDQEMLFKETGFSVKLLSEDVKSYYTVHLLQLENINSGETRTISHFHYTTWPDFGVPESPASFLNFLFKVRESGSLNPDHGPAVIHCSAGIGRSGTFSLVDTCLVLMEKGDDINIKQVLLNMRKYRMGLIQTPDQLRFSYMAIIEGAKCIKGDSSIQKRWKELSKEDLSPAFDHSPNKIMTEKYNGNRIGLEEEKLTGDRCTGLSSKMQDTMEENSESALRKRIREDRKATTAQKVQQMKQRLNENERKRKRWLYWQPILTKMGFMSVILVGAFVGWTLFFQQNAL
T2 sequence (P29350 whole entry, species assumed): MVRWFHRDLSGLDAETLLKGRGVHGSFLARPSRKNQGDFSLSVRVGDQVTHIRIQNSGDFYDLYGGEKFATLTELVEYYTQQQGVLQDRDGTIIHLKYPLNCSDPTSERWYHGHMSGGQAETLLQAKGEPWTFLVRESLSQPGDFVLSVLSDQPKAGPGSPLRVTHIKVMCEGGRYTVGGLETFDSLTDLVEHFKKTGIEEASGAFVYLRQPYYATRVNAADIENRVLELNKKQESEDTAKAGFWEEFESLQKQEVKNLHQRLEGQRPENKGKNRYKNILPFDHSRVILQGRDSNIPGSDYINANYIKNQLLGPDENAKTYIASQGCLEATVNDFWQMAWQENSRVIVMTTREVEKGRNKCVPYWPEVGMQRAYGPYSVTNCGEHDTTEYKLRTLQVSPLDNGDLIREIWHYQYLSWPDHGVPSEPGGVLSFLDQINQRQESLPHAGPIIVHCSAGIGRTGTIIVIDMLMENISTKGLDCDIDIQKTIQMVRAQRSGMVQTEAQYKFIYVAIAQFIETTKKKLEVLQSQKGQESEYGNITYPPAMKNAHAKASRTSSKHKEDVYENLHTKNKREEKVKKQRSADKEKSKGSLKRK

## O=C(/C=C\Nc1cccc([N+](=O)[O-])c1)c1ccccc1 [DJ001, (Z)-3-((3-nitrophenyl)amino)-1-phenylprop-2-en-1-one]
C57BL/6 mice; 5 mg/kg DJ001 for 5 days
  cytokine levels in BM of non-irradiated mice: no effects on cytokine levels
C57BL/6 mice; [3]
  IFN-g: 0.02
  IL-1a: 32.33 and 26.87 and 17.68
  IL-2: 1.59 and 2.65 and 1.92
  IL-3: 1.4
  IL-4: 1.41
  IL-5: 3.23 and 2.28
  IL-6: 1.83 and 1.7
  IL-9: 198.07 and 228.02 and 160.28
  IL-10: 0.57
  IL-12(p40): 0.61
  IL-12(p70): 3.18
  IL-13: 7.43
  IL-15: 2.73
  IL-17: 0.09
  IP-10: 44.2 and 47.75 and 46.43
  LIX: 516.55 and 495.26 and 507.12
C57BL/6 mice; [4]
  CXCL12: 552 and 624 and 905
  DKK: 169.52 and 249.19 and 307.94
  EGF: 11.77 and 17.58 and 11.6
  Eotaxin: 67.39 and 68.27 and 79.6
  G-CSF: 64.72 and 76.01 and 58.45
  GM-CSF: 15.66
  KC: 22.82 and 26.89 and 24.21
  MCP-1: 8.72 and 10.08 and 6.75
  MIG: 128.05 and 148.17 and 148.91
  MIP-1a: 29.47 and 26.14
  MIP-1b: 3.05
  PTN: 102.04 and 118.97 and 192.81
  RANTES: 2.96 and 2.94
  SCF: 146.274 and 131.091 and 159.522
  TNF-a: 3.15
  TPO: 49.177 and 67.682 and 63.573
  VEGF: 1.01 and 1.11
C57BL/6 mice; [5]
  IL-1b: 0.97
  IL-3: 1.4
  IL-4: 1.41
  IL-5: 2.28
  IL-7: 0.9937 and 1.153
  IL-10: 1.167 and 1.4327
  IL-12(p40): 0.74
  IL-12(p70): 3.18
  IL-13: 7.43 and 9.117
  IL-15: 2.73
  IL-17: 0.21
  IP-10: 33.483 and 30.0231 and 37.7364
  LIF: 0.3842
  LIX: 761.708 and 684.296 and 1083.25
C57BL/6 mice; [6]
  CXCL12: 622.694 and 560.08 and 714.605
  DKK: 277.711 and 227.737 and 332.999
  EGF: 2.362 and 1.271 and 1.363
  Eotaxin: 99.795 and 115.637 and 94.9841
  G-CSF: 0.02
  GM-CSF: 15.66
  KC: 2.085 and 1.462 and 2.044
  M-CSF: 2.427 and 3.036 and 4.571
  MCP-1: 3.63 and 5.244
  MIG: 98.9578 and 70.0219 and 103.204
  MIP-1b: 7.1682 and 4.315
  MIP-2: 21.5628 and 31.4245 and 16.3073
  PTN: 163.391 and 261.361 and 175.154
  RANTES: 4.272 and 4.763 and 5.943
  SCF: 23.6572 and 17.6223 and 24.6635
  TNF-a: 3.15
  TPO: 7.2054 and 5.699 and 7.158
  VEGF: 1.293 and 2.139 and 2.31
C57BL/6 mice; day +5 following 750 cGy TBI
  CXCL12 levels in BM of irradiated mice vs vehicle: modest increase in CXCL12 levels
  PTN levels in BM of irradiated mice vs vehicle: decrease in PTN levels
[1]; 2.7 μg/mL DJ001
  Supplementary Figure 1: TCPTP activity: 91 and 103 and 88
[1]; 0.27 g/mL DJ001
  Supplementary Figure 1: TCPTP activity: 97 and 96 and 99
BCL-XL in BM KSL cells; 300 cGy-irradiated BM KSL cells
  BCL-XL protein levels: increased
BCL-XL in BM KSL cells; irradiated cells, replicates
  Figure 3h: BCL-XL protein in BM KSL cells: 17.43 and 16.61 and 16.35 and 15.49 and 16.56 and 12.16
[2]; 2.7 μg/mL DJ001
  Supplementary Figure 1: SHP-1 activity: 81 and 82 and 85
[2]; 0.27 g/mL DJ001
  Supplementary Figure 1: SHP-1 activity: 99 (2×) and 102
Human BM CD34+ cells
  recovery of viable human BM CD34+CD38− cells following irradiation: increased the recovery
